From patent US7988972B2, “Immunoreactive peptides from Epstein-Barr virus” (Ortho-Clinical Diagnostics, Inc., priority 1993, dated 2011) come the findings set out here.

Several values for one entry are separate records, joined by “and”; a condition that tells them apart may be missing. Identical values can stand only once.

Assay [1] concerns CD8+ T-cell subpopulation. As to the kind of experiment: Proliferation assay with CD8+-enriched T-cell subpopulation. In kind it is cell-based, human. As to the method:
PBL enriched for T-cell subpopulations were isolated by depleting a particular population by antibody/complement-mediated cytotoxicity. CD4^+ cells were prepared by lysing CD8^+ cells with anti-CD8 antibody and rabbit complement whereas the CD8^+ T cell subpopulation was enriched by lysing CD4^+ cells with an anti-CD4 antibody and rabbit complement.
PBL were resuspended in RPMI-1640 medium containing 2 mM L-glutamine, 25 mM HEPES, and 10 μg per ml gentamicin (HEPES media) at a concentration of 20×10^6 cells per ml. T cell specific MAb, OKT4 or OKT8 (Ortho Diagnostics Inc.), was added to the cells at the optimal concentration (previously determined by titration to give maximal lysis) and incubated on ice for 30 minutes. The cells were then washed with fresh HEPES media and resuspended at 10×10^6 cells per ml in baby rabbit complement (Pel-Freez Clinical Systems) diluted with the HEPES media to the appropriate concentration (previously assayed to give maximal antibody-specific cytotoxicity). The cells were incubated for 45 minutes in a 37° C. water bath with gentle mixing every 15 minutes. After incubation, the cells were washed thoroughly with the HEPES media and an aliquot (1-2×10^6) of cells was removed and stained for flow cytometric analysis which was performed as described below. […]

Assay [2] deals with anti-EA-R and anti-EA-D sera. Briefly: ELISA, anti-EA-R and anti-EA-D sera against p17.1 and p50.10. The note with it: individual sera, donors Anti-EA-negative (VCA-negative); values >0.2 significant. In kind it is binding, human. The method, then:
ELISA. The ELISA for measuring specific antibodies to p17, p50 or to the synthetic peptides was performed as previously described in detail (Luka et al., J. Immunol. Methods, 67:145-156, 1984). Aliquots of different antigen concentrations were diluted in 0.5M Na2CO3 buffer, pH 9.5, added to wells in polystyrene microtiter plates (Linbro) and the plates incubated overnight at 4° C. Following this incubation period, the plates were washed 5× with Tris-HCl, pH 7.4, containing 0.05% Tween 20, 50 mM NaCl and 100 mg per liter albumin (Sigma) and dried for 20 minutes at room temperature. The plates were screened with different anti-EA-R or EA-D antibody positive human sera and the monoclonal antibody to p17 or p50 to identify the optimal concentration of antigen to be used in the serological studies. Alkaline-phosphatase-labelled goat anti-human IgG (Sigma) or goat anti-mouse IgG (Sigma) was used as the indicator system.
For the testing of human sera for antibodies to native p17, p50 or to the synthetic peptides, sera were diluted 1:10 in ELISA buffer, added in 0.1 ml volumes to wells coated with optimal concentrations of antigen and the plates were incubated for 60 minutes at room temperature. […] The reaction was allowed to proceed for 30 minutes at 37° C. and then the plates were screened directly with a microplate reader, TITERTEK MULTISKAN MC (Flow), at 420 nm. […]
(In an ELISA, binding on a coated surface is turned into a signal by an enzyme label.)

Turning to “ETFTETWNRFITHTE [p17.1, synthetic peptide from 17 Kd early antigen (EA-R) region of EBV]”, in assay [1] (CD8+ subpopulation from donor A), the proliferation response result was “unresponsive”. Further, the S.I. result in assay [1] (CD8+ subpopulation from donor B, 50 μg per ml) is listed as “greater than 3”. For the same sequence, in assay [2], the “ELISA (420 nm) OD readings” value was 0.024 and 0.071 and 0.027.
